Assay results published in patent US20260125400A1, “TYK2 DEGRADERS AND USES THEREOF” (Kymera Therapeutics, Inc., priority 2023, published 2026).
Where two headings read alike, the source gives them in different places.

Biological target: T1, TYK2 (Homo sapiens, UniProt P29597)
T1 construct: Degradation of TYK2 in cells was quantitatively measured using Meso Scale Discovery (MSD) technology; endogenous in cells; host or cells: OCI-LY10
Test: TYK2 MSD degradation in OCI-LY10 cells
Assay type: cell-based
Conditions: 4 to 24 hours incubation; for DC50: read-out: TYK2 MSD OCI-LY10 Rel-DC50
Summary of the method: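 OCI-LY10 cells were treated with 9-dose 1:3 series (top 1 to 10 μM final) for 4 to 24 hours at 37° C. Lysate TYK2 quantified by MSD sandwich immunoassay; DC50 and Dmax from four-parameter inhibitor vs. response fit.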

[1] = TYK2 degradation in OCI-LY10 cells

T1 sequence (P29597 whole entry): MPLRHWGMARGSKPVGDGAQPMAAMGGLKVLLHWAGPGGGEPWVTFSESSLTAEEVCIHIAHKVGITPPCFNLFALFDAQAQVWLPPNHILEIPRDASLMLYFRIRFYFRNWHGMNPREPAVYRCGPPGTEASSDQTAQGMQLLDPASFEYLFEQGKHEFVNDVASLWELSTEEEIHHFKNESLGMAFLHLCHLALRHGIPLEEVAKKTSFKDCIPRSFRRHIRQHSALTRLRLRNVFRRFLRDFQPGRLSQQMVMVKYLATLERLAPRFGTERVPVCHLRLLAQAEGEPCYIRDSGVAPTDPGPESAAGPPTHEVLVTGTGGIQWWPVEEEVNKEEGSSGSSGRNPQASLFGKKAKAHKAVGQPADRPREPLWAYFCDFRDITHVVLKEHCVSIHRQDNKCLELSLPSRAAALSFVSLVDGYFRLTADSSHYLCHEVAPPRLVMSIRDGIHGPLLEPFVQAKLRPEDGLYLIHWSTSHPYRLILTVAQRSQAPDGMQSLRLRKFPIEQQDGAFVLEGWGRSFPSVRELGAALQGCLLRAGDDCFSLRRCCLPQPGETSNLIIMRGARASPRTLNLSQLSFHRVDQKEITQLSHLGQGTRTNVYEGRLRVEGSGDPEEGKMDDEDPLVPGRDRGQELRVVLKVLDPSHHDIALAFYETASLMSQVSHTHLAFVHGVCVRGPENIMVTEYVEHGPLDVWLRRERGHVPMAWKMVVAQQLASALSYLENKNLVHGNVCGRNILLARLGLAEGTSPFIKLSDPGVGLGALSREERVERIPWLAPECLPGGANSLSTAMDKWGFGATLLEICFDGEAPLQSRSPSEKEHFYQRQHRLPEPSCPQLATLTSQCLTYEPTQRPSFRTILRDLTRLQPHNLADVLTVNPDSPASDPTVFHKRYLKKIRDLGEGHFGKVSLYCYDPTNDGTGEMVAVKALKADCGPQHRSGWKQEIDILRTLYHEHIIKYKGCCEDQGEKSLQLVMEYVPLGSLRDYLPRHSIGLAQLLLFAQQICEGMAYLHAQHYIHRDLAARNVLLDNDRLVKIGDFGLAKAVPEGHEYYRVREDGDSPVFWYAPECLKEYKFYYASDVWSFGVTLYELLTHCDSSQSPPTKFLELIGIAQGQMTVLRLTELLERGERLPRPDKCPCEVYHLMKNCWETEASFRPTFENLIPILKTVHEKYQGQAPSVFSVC

Compound | TYK2 MSD OCI-LY10 Dmax % [1] | DC50 [1] | TYK2 MSD OCI-LY10 Dmax % (OCI-LY10 cells) | DC50 (OCI-LY10 cells) | Dmax [1]
CNc1cc(N2CCc3c(-c4ccc(CN5CCC(N6CC(N7CCN(c8cccc9c8n(C)c(=O)n9C8CCC(=O)NC8=O)CC7)C6)C(F)(F)C5)cn4)cccc32)nn2c(C(=O)N[C@@H]3C[C@@H]3F)cnc12 (some centres unmarked) [I-277] | B (B (90 to >75%)) | < 1 nM | – | – | –
CNc1cc(N2CC3(CCN(CC4CCN(c5ccc6c(c5)n(C)c(=O)n6C5CCC(=O)NC5=O)CC4)CC3)c3ccccc32)nn2c(C(=O)NC3CC3)cnc12 (centres unmarked) [I-24] | D (D (<50%)) | > 100 nM | – | – | –
CNc1cc(N2CCc3c(CN4CCC(N5CCC6(CC5)CN(C(=O)c5cc(N7CCC(=O)NC7=O)c(Cl)c(C)n5)C6)C(F)(F)C4)cccc32)nn2c(C(=O)N[C@@H]3CC[C@H]3OC)cnc12 (some centres unmarked) [I-1156] | B (B (90 to >75%)) | < 1 nM | – | – | –
CNc1cc(N2CCc3c(CN4CCC(N5CCC6(CCN(C(=O)c7cc(F)c(C)c(N8CCC(=O)NC8=O)c7)CC6)CC5)C(F)(F)C4)cccc32)nn2c(C(=O)N[C@@H]3CC[C@H]3OC)cnc12 (some centres unmarked) [I-1081] | A (A (>90%)) | < 1 nM | – | – | –
CNc1cc(N2CCc3c(N4CCC5(CCN(C(=O)c6ccc(Cl)c(N7CCC(=O)NC7=O)c6)CC5)CC4)cccc32)nn2c(C(=O)N[C@@H]3C[C@@H]3F)cnc12 [I-93] | D (D (<50%)) | < 10 nM | – | – | –
CNc1cc(N2CCc3c(-c4ccc(CN5CC6(CCN(C(=O)c7ccc(Cl)c(N8CCC(=O)NC8=O)c7)CC6(F)F)C5)cn4)cc(C(F)(F)F)cc32)nn2c(C(=O)N[C@@H]3C[C@@H]3F)cnc12 [I-856] | C (C (75 to 50%)) | 10 to 100 nM | – | – | –
CNc1cc(N2CCc3c(-c4ccc(N5CCN(C(=O)c6ccc(Cl)c(N7CCC(=O)NC7=O)c6)CC5)cn4)cccc32)nn2c(C(=O)N[C@@H]3C[C@@H]3F)cnc12 [I-90] | D (D (<50%)) | < 10 nM | – | – | –
CNc1cc(N2CCc3c(-c4ccc(CN5CCC6(CCN(C(=O)c7cc(C)c(Cl)c(N8CCC(=O)NC8=O)c7)CC6)C(F)(F)C5)cn4)cccc32)nc2c(C(=O)N[C@@H]3C[C@@H]3F)cnn12 [I-816] | B (B (90 to >75%)) | < 10 nM | – | – | –
CNc1cc(N2CCc3c(-c4ccc(OC5CCC6(CC5)CCN(C(=O)c5ccc(Cl)c(N7CCC(=O)NC7=O)c5)CC6)cn4)cccc32)nn2c(C(=O)N[C@@H]3C[C@@H]3F)cnc12 [I-75] | C (C (75 to 50%)) | < 10 nM | – | – | –
CNc1cc(N2CCc3c(-c4ncc(CN5CC6(CCN(C(=O)c7cc(C)c(Cl)c(N8CCC(=O)NC8=O)c7)CC6(F)F)C5)cc4C)cccc32)nn2c(C(=O)N[C@@H]3C[C@@H]3F)cnc12 [I-756] | – | – | B (B (90 to >75%)) | < 10 nM | –
CNc1cc(N2CCc3c(CN4CCC(CN5CCC6(CC5)CCN(C(=O)c5ccc(Cl)c(N7CCC(=O)NC7=O)c5)CC6)C(F)(F)C4)cccc32)nn2c(C(=O)N[C@@H]3CC[C@H]3OC)cnc12 (stereo partly drawn) [I-1074, 6-(4-{[4-({9-[14-chloro-3-(2,4-dioxo-1,3-diazinan-1-yl)benzoyl]-3,9-diazaspiro[5.5]undecan-3-yl}methyl)-3,3-difluoropiperidin-1-yl]methyl}-2,3-dihydroindol-1-yl)-N-[(1R,2R)-2-methoxycyclobutyl]-8-(methylamino)imidazo[1,2-b]pyridazine-3-carboxamide] | – | < 1 nM | – | – | > 90%
CNc1cc(N2CCc3c(N4CCN(C5CC6(CCN(C(=O)c7ccc(Cl)c(N8CCC(=O)NC8=O)c7)CC6)C5)CC4)cccc32)nn2c(C(=O)N[C@@H]3C[C@@H]3F)cnc12 [I-283] | D (D (<50%)) | > 100 nM | – | – | –
CNc1cc(N2CCc3c(C#CCN4CCC5(CCN(C(=O)c6ccc(Cl)c(N7CCC(=O)NC7=O)c6)CC5)C(F)(F)C4)cccc32)nn2c(C(=O)N[C@@H]3C[C@@H]3F)cnc12 [I-242] | C (C (75 to 50%)) | < 10 nM | – | – | –
CNC(=O)c1cnc(Nc2ccc(C(=O)NCCOCCOCCN(C(=O)[C@H]3CCCN(c4cncc5ccccc45)C3)c3ccc(=O)n(CC(=O)O)c3)cn2)cc1Nc1cccc(-c2ncccn2)c1OC [I-915, (S)-2-(5-(1-(isoquinolin-4-yl)-N-(2-(2-(2-(6-((4-((2-methoxy-3-(pyrimidin-2-yl)phenyl)amino)-5-(methylcarbamoyl)pyridin-2-yl)amino)nicotinamido)ethoxy)ethoxy)ethyl)piperidine-3-carboxamido)-2-oxopyridin-1(2H)-yl)acetic acid] | – | 10 to 100 nM | – | – | 50 to 75%
CNc1cc(N2CCc3c(-c4ncc(CN5CC6(CCN(C(=O)c7cc(N8CCC(=O)NC8=O)c(Cl)c(C)n7)CC6(F)F)C5)cc4F)cc(F)cc32)nn2c(C(=O)N[C@@H]3CC[C@H]3OC)cnc12 [I-1151] | A (A (>90%)) | < 1 nM | – | – | –
CNc1cc(N2CCc3c(-c4ncc(CN5CC6(CCN(C(=O)c7cc(C)c(C)c(N8CCC(=O)NC8=O)c7)CC6(F)F)C5)cc4F)cccc32)nn2c(C(=O)N[C@@H]3C[C@@H]3F)cnc12 [I-989] | A (A (>90%)) | < 1 nM | – | – | –
CNc1cc(N2CCc3c(CN4CCC(N5CCC6(CCN(c7ccc8c(c7)n(C)c(=O)n8C7CCC(=O)NC7=O)CC6)CC5)C(F)(F)C4)cccc32)nn2c(C(=O)NC3CC3)cnc12 (centres unmarked) [I-19] | B (B (90 to >75%)) | < 10 nM | – | – | –

Compound | TYK2 MSD OCI-LY10 Dmax % [1] | DC50 [1] | TYK2 MSD OCI-LY10 Dmax % (OCI-LY10 cells) | DC50 (OCI-LY10 cells) | Dmax [1]
CNc1cc(N2CC3(CCN(c4cccc5c4n(C)c(=O)n5C4CCC(=O)NC4=O)CC3)c3ccccc32)nn2c(C(=O)NC3CC3)cnc12 (centres unmarked) [I-51] | D (D (<50%)) | > 100 nM | – | – | –
CNc1cc(N2CCc3c(-c4ccc(CN5CC6(CCN(C(=O)c7ccc(Cl)c(C8CCC(=O)NC8=O)c7)CC6(F)F)C5)cn4)cccc32)nn2c(C(=O)N[C@@H]3C[C@@H]3F)cnc12 (some centres unmarked) [I-502] | – | – | A (A (>90%)) | < 1 nM | –
CNc1cc(N2CC3(CCN(Cc4ccc5c(c4)n(C)c(=O)n5C4CCC(=O)NC4=O)CC3)c3ccccc32)nn2c(C(=O)NC3CC3)cnc12 (centres unmarked) [I-34] | D (D (<50%)) | > 100 nM | – | – | –
CNc1cc(N2CCc3c(CN4CCC(N5CCC(N6CCN(C(=O)c7ccc(Cl)c(N8CCC(=O)NC8=O)c7)CC6)CC5)C(F)(F)C4)cccc32)nn2c(C(=O)N[C@@H]3C[C@@H]3F)cnc12 (some centres unmarked) [I-707] | – | – | D (D (<50%)) | < 10 nM | –
CNc1cc(N2CCc3c(-c4ncc(CN5CC6(CCN(C(=O)c7cc(F)c(C)c(N8CCC(=O)NC8=O)c7)CC6(F)F)C5)cc4F)cccc32)nn2c(C(=O)N[C@@H]3C[C@@H]3F)cnc12 [I-1016] | A (A (>90%)) | < 1 nM | – | – | –
CNc1cc(N2CCc3c(-c4ccc(CN5CC6(CCN(C(=O)c7ccc(Cl)c(N8CCC(=O)NC8=O)c7)C6)C5)cn4)cccc32)nn2c(C(=O)NC3CC3F)cnc12 (centres unmarked) [I-296] | C (C (75 to 50%)) | < 1 nM | – | – | –
CNc1cc(N2CCc3c(-c4ccc(CN5CCC6(CCN(C(=O)c7ccc(Cl)c(N8CCC(=O)NC8=O)c7)CC6)C(F)(F)C5)cn4)cccc32)nn2c(C(=O)NC3CC(C(F)(F)F)C3)cnc12 (centres unmarked) [I-1118] | C (C (75 to 50%)) | 10 to 100 nM | – | – | –
CNc1cc(N2CCc3c(CC4CCN(C5CCC6(CC5)CCN(C(=O)c5ccc(Cl)c(N7CCC(=O)NC7=O)c5)CC6)CC4)cccc32)nn2c(C(=O)N[C@@H]3C[C@@H]3F)cnc12 [I-820] | B (B (90 to >75%)) | < 10 nM | – | – | –
CNc1cc(N2CCc3c(-c4ccc(CC5CCC6(CC5)CCN(C(=O)c5ccc(Cl)c(N7CCC(=O)NC7=O)c5)CC6)cn4)cccc32)nn2c(C(=O)N[C@@H]3C[C@@H]3F)cnc12 [I-654] | – | – | B (B (90 to >75%)) | < 10 nM | –
CNc1cc(N2CCc3c(-c4ccc(CN5CCC6(CCN(C(=O)c7cc(C)c(C)c(N8CCC(=O)NC8=O)c7)CC6)C(F)(F)C5)cn4)cccc32)nn2c(C(=O)N[C@@H]3C[C@@H]3F)cnc12 [I-797] | A (A (>90%)) | < 1 nM | – | – | –
CNc1cc(N2CCc3c(-c4cc(CN5CCN(c6cc7c(cc6F)c(N6CCC(=O)NC6=O)nn7C)CC5)ccn4)cccc32)nn2c(C(=O)N[C@@H]3C[C@@H]3F)cnc12 [I-709] | – | – | D (D (<50%)) | < 10 nM | –
CNc1cc(N2CCc3c(-c4ncc(CN5CC6(CCN(C(=O)c7cc(N8CCC(=O)NC8=O)c(F)cn7)CC6(F)F)C5)cc4F)cc(F)cc32)nn2c(C(=O)N[C@@H]3C[C@@H]3F)cnc12 [I-1153] | B (B (90 to >75%)) | < 10 nM | – | – | –
CNc1cc(N2CCc3c(-c4ccc(CN5CCC6(CCN(C(=O)c7cc(C)c(Cl)c(N8CCC(=O)NC8=O)c7)CC6)C(F)(F)C5)cn4)cccc32)nn2c(C(=O)N[C@@H]3C[C@@H]3F)cnc12 [I-655] | – | – | B (B (90 to >75%)) | < 10 nM | –
CNC(=O)c1cnc(Nc2ccc(C(=O)NCCOCCOCCOCCOCCN(C(=O)C3CCCN(c4cncc5ccccc45)C3)c3ccc(=O)n(CC(=O)O)c3)cn2)cc1Nc1cccc(-c2ncccn2)c1OC (centres unmarked) [I-920] | D (D (<50%)) | > 100 nM | – | – | –
CNc1cc(N2CCc3c(-c4ccc(CN5CCC6(CCN(C(=O)c7ccc(Cl)c(N8CCC(=O)NC8=O)c7)C6)C(F)(F)C5)cn4)cccc32)nn2c(C(=O)N[C@@H]3C[C@@H]3F)cnc12 (some centres unmarked) [I-1082] | B (B (90 to >75%)) | < 1 nM | – | – | –
CNc1cc(N2CCc3c(CN4CC[C@H](N5CCC6(CCN(C(=O)c7ccc(Cl)c(N8CCC(=O)NC8=O)c7)CC6)CC5)C(F)(F)C4)cccc32)nn2c(C(=O)N[C@@H]3C[C@@H]3F)cnc12 [I-715] | – | – | B (B (90 to >75%)) | < 1 nM | –
CNc1cc(N2CCc3c(CN4CCC(N5CCC6(CCN(C(=O)c7cc(C)c(Cl)c(N8CCC(=O)NC8=O)c7)CC6)CC5)C(F)(F)C4)cccc32)nc2c(C(=O)N[C@@H]3C[C@@H]3F)cnn12 (some centres unmarked) [I-775] | – | – | A (A (>90%)) | < 1 nM | –
